In publication PMC10150354, “Linearization of the Brevicidine and Laterocidine Lipopeptides Yields Analogues That Retain Full Antibacterial Activity” (Journal of Medicinal Chemistry, 2023):
≈ marks a conversion by molar mass, not a printed value. Where a SMILES comes first, the peptide text is derived from it. [ ]: non-standard residue; d: D form. The star is where a group is joined. Octanoyl(7-Me) = CC(C)CCCCCC(=O)*; dOrn = NCCC[C@@H](N)C(=O)O; Orn = NCCC[C@H](N)C(=O)O

What was measured:
E. coli (MCR-1) = assay type: cell-based, Escherichia coli; settings: microbroth dilution per CLSI, MHB, 18 h at 37 °C, visual inspection, three technical replicates, E. coli 25922 carrying mcr-1
Experimental: (§1) Linear laterocidine (LL-OH, 4) and linear brevicidine (LB-OH, 5) were first synthesized by Fmoc SPPS, starting from 2-chlorotrityl (2-CT) chloride resin. The antibacterial activity of these peptides was then compared to brevicidine (1) and laterocidine (2) using minimum inhibitory concentration (MIC)/microbroth dilution assays (Table 1). The MICs of all peptides were determined against a panel of Gram-negative and Gram-positive ESKAPE pathogens. Additionally, a strain of E. coli carrying the mcr-1 gene was included in the panel. The mcr-1 gene is a transferrable plasmid that confers resistance against colistin, a last-resort antibiotic for Gram-negative infections, by reducing the overall negative charge of lipopolysaccharide (LPS) through modification of lipid A with phosphoethanolamine. The propensity for cationic antibiotics to bind to the cell membrane is therefore reduced. This gene has been observed in more than 27 bacterial species over six continents.[26] The spread of the mcr-1 gene could render colistin ineffectual; therefore, novel antibacterials are urgently required to overcome this form of resistance.
(§2) All minimum inhibitory concentrations (MICs) were determined according to Clinical and Laboratory Standards Institute (CLSI) guidelines. Blood agar plates were inoculated with glycerol stocks of E. coli ATCC 25922, K. pneumoniae ATCC 13883, A. baumannii ATCC 17961, P. aeruginosa PAO1, and S. aureus USA300. The inoculated agar plates were then incubated for 16 h at 37 °C. Individually grown colonies were subsequently used to inoculate 5 mL aliquots of TSB that were then incubated at 37 °C with shaking at 220 rpm. E. coli 25922 MCR-1 glycerol stock was used to inoculate 5 mL of TSB supplemented with kanamycin that was then incubated for 16 h at 37 °C with shaking at 220 rpm. The next day the culture was diluted 100-fold in TSB supplemented with kanamycin and incubated at 37 °C with shaking at 220 rpm. In parallel, the lipopeptide antibiotics DMSO stocks to be assessed were serially diluted with MHB in polypropylene 96-well plates (50 μL in each well). Colistin sulfate stocks were dissolved in water before being diluted with MHB. Aliquots of the inoculated TSB were incubated until an OD600 of around 0.5 was reached. The bacterial suspensions were then diluted with MHB (2 × 10^5 CFU/mL) and added to the microplates containing the test compounds (50 μL to each well). The well plates were sealed with an adhesive membrane and after 18 h of incubation at 37 °C with shaking at 600 rpm, the wells were visually inspected for bacterial growth. MIC values reported are based on three technical replicates and defined as the lowest concentration of the compound that prevented visible growth of bacteria.

E. coli ATCC 25922 = assay type: cell-based, Escherichia coli; settings: for MIC (µg/mL) against E. coli (ATCC 25922): (Supplement 2); for Antibacterial activity (MIC) E. coli ATCC 25922: microbroth dilution per CLSI, MHB, 18 h at 37 °C, visual inspection, three technical replicates
Experimental: as §1, §2

K. pneumoniae ATCC 13883 = assay type: cell-based, Klebsiella pneumoniae; settings: microbroth dilution per CLSI, MHB, 18 h at 37 °C, visual inspection, three technical replicates
Experimental: as §1, §2

A. baumannii ATCC 17961 = assay type: cell-based, Acinetobacter baumannii; settings: microbroth dilution per CLSI, MHB, 18 h at 37 °C, visual inspection, three technical replicates
Experimental: as §1, §2

P. aeruginosa PAO1 = assay type: cell-based, Pseudomonas aeruginosa; settings: microbroth dilution per CLSI, MHB, 18 h at 37 °C, visual inspection, three technical replicates
Experimental: as §1, §2

S. aureus USA300 = assay type: cell-based, Staphylococcus aureus; settings: microbroth dilution per CLSI, MHB, 18 h at 37 °C, visual inspection, three technical replicates
Experimental: as §1, §2

CC[C@H](C)[C@H](NC(=O)[C@@H](NC(=O)[C@H](Cc1c[nH]c2ccccc12)NC(=O)[C@@H](CCCN)NC(=O)[C@H](C)NC(=O)[C@H](CCCN)NC(=O)[C@@H](CCCN)NC(=O)[C@@H](Cc1c[nH]c2ccccc12)NC(=O)[C@@H](Cc1ccc(O)cc1)NC(=O)[C@@H](CO)NC(=O)CCCCCC(C)C)[C@@H](C)O)C(=O)N[C@@H](CC(N)=O)C(=O)NCC(=O)NCC(N)=O [LL(Ala6)-NH2 (34)] ({Octanoyl(7-Me)}-[dS][dY][dW][dOrn][Orn]A[dOrn]WTINGG-NH2)
Antibacterial activity (MIC) E. coli (MCR-1) (E. coli (MCR-1)): 8 µg/mL
MIC (µg/mL) against E. coli (ATCC 25922) (E. coli ATCC 25922): 4 to 8 µg/mL
Antibacterial activity (MIC) E. coli ATCC 25922 (E. coli ATCC 25922): 4 to 8 µg/mL
Antibacterial activity (MIC) K. pneumoniae ATCC 13883 (K. pneumoniae ATCC 13883): 8 µg/mL
Antibacterial activity (MIC) A. baumannii ATCC 17961 (A. baumannii ATCC 17961): 16 µg/mL
Antibacterial activity (MIC) P. aeruginosa PAO1 (P. aeruginosa PAO1): 16 µg/mL
Antibacterial activity (MIC) S. aureus USA300 (S. aureus USA300): >32 µg/mL

CC[C@H](C)[C@H](NC(=O)[C@@H](NC(=O)[C@H](C)NC(=O)[C@@H](CCCN)NC(=O)CNC(=O)[C@H](CCCN)NC(=O)[C@@H](CCCN)NC(=O)[C@@H](Cc1c[nH]c2ccccc12)NC(=O)[C@@H](Cc1ccc(O)cc1)NC(=O)[C@@H](CO)NC(=O)CCCCCC(C)C)[C@@H](C)O)C(=O)N[C@@H](CC(N)=O)C(=O)NCC(=O)NCC(N)=O [LL(Ala8)-NH2 (36)] ({Octanoyl(7-Me)}-[dS][dY][dW][dOrn][Orn]G[dOrn]ATINGG-NH2)
Antibacterial activity (MIC) E. coli (MCR-1) (E. coli (MCR-1)): >32 µg/mL
Antibacterial activity (MIC) E. coli ATCC 25922 (E. coli ATCC 25922): >32 µg/mL
Antibacterial activity (MIC) K. pneumoniae ATCC 13883 (K. pneumoniae ATCC 13883): >32 µg/mL
Antibacterial activity (MIC) A. baumannii ATCC 17961 (A. baumannii ATCC 17961): >32 µg/mL
Antibacterial activity (MIC) P. aeruginosa PAO1 (P. aeruginosa PAO1): 32 µg/mL
Antibacterial activity (MIC) S. aureus USA300 (S. aureus USA300): >32 µg/mL

CC[C@H](C)[C@H](NC(=O)[C@H](C)NC(=O)[C@H](Cc1c[nH]c2ccccc12)NC(=O)[C@@H](CCCN)NC(=O)CNC(=O)[C@H](CCCN)NC(=O)[C@@H](CCCN)NC(=O)[C@@H](Cc1c[nH]c2ccccc12)NC(=O)[C@@H](Cc1ccc(O)cc1)NC(=O)[C@@H](CO)NC(=O)CCCCCC(C)C)C(=O)N[C@@H](CC(N)=O)C(=O)NCC(=O)NCC(N)=O [LL(Ala9)-NH2 (37)] ({Octanoyl(7-Me)}-[dS][dY][dW][dOrn][Orn]G[dOrn]WAINGG-NH2)
Antibacterial activity (MIC) E. coli (MCR-1) (E. coli (MCR-1)): 4 to 8 µg/mL
Antibacterial activity (MIC) E. coli ATCC 25922 (E. coli ATCC 25922): 4 µg/mL
Antibacterial activity (MIC) K. pneumoniae ATCC 13883 (K. pneumoniae ATCC 13883): 4 µg/mL
Antibacterial activity (MIC) A. baumannii ATCC 17961 (A. baumannii ATCC 17961): 8 µg/mL
Antibacterial activity (MIC) P. aeruginosa PAO1 (P. aeruginosa PAO1): 4 µg/mL
Antibacterial activity (MIC) S. aureus USA300 (S. aureus USA300): >32 µg/mL

CC(C)CCCCCC(=O)N[C@H](CO)C(=O)N[C@H](Cc1ccc(O)cc1)C(=O)N[C@H](Cc1c[nH]c2ccccc12)C(=O)N[C@H](CCCN)C(=O)N[C@@H](CCCN)C(=O)NCC(=O)N[C@H](CCCN)C(=O)N[C@@H](Cc1c[nH]c2ccccc12)C(=O)N[C@H](C(=O)N[C@@H](C)C(=O)N[C@@H](CC(N)=O)C(=O)NCC(=O)NCC(N)=O)[C@@H](C)O [LL(Ala10)-NH2 (38)] ({Octanoyl(7-Me)}-[dS][dY][dW][dOrn][Orn]G[dOrn]WTANGG-NH2)
Antibacterial activity (MIC) E. coli (MCR-1) (E. coli (MCR-1)): >32 µg/mL
Antibacterial activity (MIC) E. coli ATCC 25922 (E. coli ATCC 25922): >32 µg/mL
Antibacterial activity (MIC) K. pneumoniae ATCC 13883 (K. pneumoniae ATCC 13883): >32 µg/mL
Antibacterial activity (MIC) A. baumannii ATCC 17961 (A. baumannii ATCC 17961): >32 µg/mL
Antibacterial activity (MIC) P. aeruginosa PAO1 (P. aeruginosa PAO1): 16 µg/mL
Antibacterial activity (MIC) S. aureus USA300 (S. aureus USA300): >32 µg/mL

CC[C@H](C)[C@H](NC(=O)[C@@H](NC(=O)[C@H](Cc1c[nH]c2ccccc12)NC(=O)[C@@H](CCCN)NC(=O)CNC(=O)[C@H](CCCN)NC(=O)[C@@H](CCCN)NC(=O)[C@@H](Cc1c[nH]c2ccccc12)NC(=O)[C@@H](Cc1ccc(O)cc1)NC(=O)[C@@H](CO)NC(=O)CCCCCC(C)C)[C@@H](C)O)C(=O)N[C@@H](C)C(=O)NCC(=O)NCC(N)=O [LL(Ala11)-NH2 (39)] ({Octanoyl(7-Me)}-[dS][dY][dW][dOrn][Orn]G[dOrn]WTIAGG-NH2)
Antibacterial activity (MIC) E. coli (MCR-1) (E. coli (MCR-1)): 8 µg/mL
Antibacterial activity (MIC) E. coli ATCC 25922 (E. coli ATCC 25922): 8 µg/mL
Antibacterial activity (MIC) K. pneumoniae ATCC 13883 (K. pneumoniae ATCC 13883): 8 µg/mL
Antibacterial activity (MIC) A. baumannii ATCC 17961 (A. baumannii ATCC 17961): 8 µg/mL
Antibacterial activity (MIC) P. aeruginosa PAO1 (P. aeruginosa PAO1): 4 µg/mL
Antibacterial activity (MIC) S. aureus USA300 (S. aureus USA300): >32 µg/mL

CC[C@H](C)[C@H](NC(=O)[C@@H](NC(=O)[C@H](Cc1c[nH]c2ccccc12)NC(=O)[C@@H](CCCN)NC(=O)CNC(=O)[C@H](CCCN)NC(=O)[C@@H](CCCN)NC(=O)[C@@H](Cc1c[nH]c2ccccc12)NC(=O)[C@@H](Cc1ccc(O)cc1)NC(=O)[C@@H](CO)NC(=O)CCCCCC(C)C)[C@@H](C)O)C(=O)N[C@@H](CC(N)=O)C(=O)N[C@@H](C)C(=O)NCC(N)=O [LL(Ala12)-NH2 (40)] ({Octanoyl(7-Me)}-[dS][dY][dW][dOrn][Orn]G[dOrn]WTINAG-NH2)
Antibacterial activity (MIC) E. coli (MCR-1) (E. coli (MCR-1)): 8 µg/mL
Antibacterial activity (MIC) E. coli ATCC 25922 (E. coli ATCC 25922): 8 µg/mL
Antibacterial activity (MIC) K. pneumoniae ATCC 13883 (K. pneumoniae ATCC 13883): 8 µg/mL
Antibacterial activity (MIC) A. baumannii ATCC 17961 (A. baumannii ATCC 17961): 8 µg/mL
Antibacterial activity (MIC) P. aeruginosa PAO1 (P. aeruginosa PAO1): 8 µg/mL
Antibacterial activity (MIC) S. aureus USA300 (S. aureus USA300): >32 µg/mL

CC[C@H](C)[C@H](NC(=O)[C@@H](NC(=O)[C@H](Cc1c[nH]c2ccccc12)NC(=O)[C@@H](CCCN)NC(=O)CNC(=O)[C@H](CCCN)NC(=O)[C@@H](CCCN)NC(=O)[C@@H](Cc1c[nH]c2ccccc12)NC(=O)[C@@H](Cc1ccc(O)cc1)NC(=O)[C@@H](CO)NC(=O)CCCCCC(C)C)[C@@H](C)O)C(=O)N[C@@H](CC(N)=O)C(=O)NCC(=O)N[C@@H](C)C(N)=O [LL(Ala13)-NH2 (41)] ({Octanoyl(7-Me)}-[dS][dY][dW][dOrn][Orn]G[dOrn]WTINGA-NH2)
Antibacterial activity (MIC) E. coli (MCR-1) (E. coli (MCR-1)): 8 µg/mL
MIC (µg/mL) against E. coli (ATCC 25922) (E. coli ATCC 25922): 4 to 8 µg/mL
Antibacterial activity (MIC) E. coli ATCC 25922 (E. coli ATCC 25922): 4 to 8 µg/mL
Antibacterial activity (MIC) K. pneumoniae ATCC 13883 (K. pneumoniae ATCC 13883): 8 µg/mL
Antibacterial activity (MIC) A. baumannii ATCC 17961 (A. baumannii ATCC 17961): 8 µg/mL
Antibacterial activity (MIC) P. aeruginosa PAO1 (P. aeruginosa PAO1): 4 µg/mL
Antibacterial activity (MIC) S. aureus USA300 (S. aureus USA300): >32 µg/mL

CC[C@H](C)[C@H](NC(=O)[C@H](CC(N)=O)NC(=O)[C@H](Cc1c[nH]c2ccccc12)NC(=O)[C@@H](CCCN)NC(=O)CNC(=O)[C@H](CCCN)NC(=O)[C@@H](CCCN)NC(=O)[C@@H](Cc1c[nH]c2ccccc12)NC(=O)[C@@H](Cc1ccc(O)cc1)NC(=O)[C@@H](CO)NC(=O)CCCCCC(C)C)C(=O)N[C@@H](CC(N)=O)C(=O)NCC(=O)NCC(N)=O [LL(Asn9)-NH2 (47)] ({Octanoyl(7-Me)}-[dS][dY][dW][dOrn][Orn]G[dOrn]WNINGG-NH2)
Antibacterial activity (MIC) E. coli (MCR-1) (E. coli (MCR-1)): 8 µg/mL
MIC (µg/mL) against E. coli (ATCC 25922) (E. coli ATCC 25922): 8 µg/mL (≈ 4.89 µM)
Antibacterial activity (MIC) E. coli ATCC 25922 (E. coli ATCC 25922): 8 µg/mL
Antibacterial activity (MIC) K. pneumoniae ATCC 13883 (K. pneumoniae ATCC 13883): 8 to 16 µg/mL
Antibacterial activity (MIC) A. baumannii ATCC 17961 (A. baumannii ATCC 17961): 16 µg/mL
Antibacterial activity (MIC) P. aeruginosa PAO1 (P. aeruginosa PAO1): 8 µg/mL
Antibacterial activity (MIC) S. aureus USA300 (S. aureus USA300): >32 µg/mL
